Here are results for 1 compound from article PMC6717386, “Aspulvinone O, a natural inhibitor of GOT1 suppresses pancreatic ductal adenocarcinoma cells growth by interfering glutamine metabolism” (Cell Communication and Signaling : CCS, 2019).

SMILES strings stand for the structures.

Assay [1] concerns the target T1, murine GOT1 (Mus musculus, UniProt P05201).
T1 construct: recombinant, C-terminal 6 His-tag
In words: microscale thermophoresis with labelled recombinant GOT1; supported by purified enzyme inhibition. Format: binding. (MST reads how a fluorescent partner responds to local heating, with and without ligand.)

Assay [2] has as its target GOT1 (aspartate transaminase 1, glutamic-oxaloacetic transaminase 1) (Homo sapiens, UniProt P17174). In words: microscale thermophoresis with labelled recombinant GOT1; supported by purified enzyme inhibition and kinetics, CETSA and DARTS. The format is binding.

T1 sequence (P05201 2-413): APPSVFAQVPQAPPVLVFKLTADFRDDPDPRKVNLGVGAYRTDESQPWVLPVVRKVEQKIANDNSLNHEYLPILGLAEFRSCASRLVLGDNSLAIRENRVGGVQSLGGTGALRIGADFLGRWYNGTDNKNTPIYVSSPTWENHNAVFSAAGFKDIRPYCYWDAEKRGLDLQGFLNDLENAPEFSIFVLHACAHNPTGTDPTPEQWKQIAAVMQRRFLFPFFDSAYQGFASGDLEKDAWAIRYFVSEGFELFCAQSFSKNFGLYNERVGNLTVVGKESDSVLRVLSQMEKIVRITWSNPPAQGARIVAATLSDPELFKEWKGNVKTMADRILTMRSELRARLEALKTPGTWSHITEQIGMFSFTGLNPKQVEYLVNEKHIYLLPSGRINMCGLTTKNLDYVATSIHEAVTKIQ
GOT1 (aspartate transaminase 1, glutamic-oxaloacetic transaminase 1), sequence (P17174 2-413): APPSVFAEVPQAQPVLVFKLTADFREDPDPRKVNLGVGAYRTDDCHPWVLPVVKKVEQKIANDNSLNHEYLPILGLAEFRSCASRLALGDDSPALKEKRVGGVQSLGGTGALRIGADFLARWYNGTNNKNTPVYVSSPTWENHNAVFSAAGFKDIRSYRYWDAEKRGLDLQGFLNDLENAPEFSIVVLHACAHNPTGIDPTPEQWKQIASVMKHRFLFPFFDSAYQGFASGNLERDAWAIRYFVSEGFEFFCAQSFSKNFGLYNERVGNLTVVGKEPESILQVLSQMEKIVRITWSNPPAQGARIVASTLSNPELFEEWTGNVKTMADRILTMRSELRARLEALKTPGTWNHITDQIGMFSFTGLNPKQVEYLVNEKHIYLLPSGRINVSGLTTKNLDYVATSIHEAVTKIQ

As for `CC(C)=CCc1cc(/C=C2\OC(=O)C(c3cc(CC=C(C)C)c(O)cc3O)=C2O)ccc1O` [AO, 3-[2,4-Dihydroxy-5-(3-methyl-2-buten-1-yl)phenyl]-4-hydroxy-5-[[4-hydroxy-3-(3-methyl-2-buten-1-yl)phenyl]methylene]-2(5H)-furanone], the figures for the Kd in assay [1] and in assay [2] were 5.42 ± 1.36 µM and 3.32 ± 1.18 µM, respectively.

As a reminder, the Kd is the free concentration of one partner at which half of the binding sites on the other are occupied at equilibrium, for simple one-to-one binding.
